Test in all cases: Kinase panel profiling at 1 µmol/L (MSA or IMAP), percentage inhibition
Holding throughout (format): biochemical

The target of assay [1] is panel of 255 wild-type kinases (Homo sapiens, UniProt Q05397). The conditions noted are these: read-out: %-inhibition at 1 µmol/L, FAK.
The target in assay [2] is panel of 255 wild-type kinases (Homo sapiens, UniProt Q9H4A3). Conditions: read-out: %-inhibition at 1 µmol/L, WNK1.
Assay [3] has as its target panel of 255 wild-type kinases (Homo sapiens, UniProt P78368). Conditions: read-out: %-inhibition at 1 µmol/L, CK1γ2.
In assay [4] the target is panel of 255 wild-type kinases (Homo sapiens, UniProt Q00535). The conditions noted are these: read-out: %-inhibition CDK5/p25.
Assay [5] concerns the target panel of 255 wild-type kinases (Homo sapiens, UniProt O95819). The conditions noted are these: read-out: %-inhibition at 1 µmol/L, HGK.
Assay [6] deals with panel of 255 wild-type kinases (Homo sapiens, UniProt Q9NYY3). The conditions noted are these: read-out: %-inhibition at 1 µmol/L, PLK2.
Assay [7] deals with panel of 255 wild-type kinases (Homo sapiens, UniProt Q9NYA1). Conditions: read-out: %-inhibition at 1 µmol/L, SPHK1.
The target of assay [8] is panel of 255 wild-type kinases (Homo sapiens, UniProt P49840). Conditions: read-out: %-inhibition at 1 µmol/L, GSK3α.
The target of assay [9] is T1, panel of 255 wild-type kinases (Homo sapiens, UniProt P41743).
T1 sequence (P41743 1-596): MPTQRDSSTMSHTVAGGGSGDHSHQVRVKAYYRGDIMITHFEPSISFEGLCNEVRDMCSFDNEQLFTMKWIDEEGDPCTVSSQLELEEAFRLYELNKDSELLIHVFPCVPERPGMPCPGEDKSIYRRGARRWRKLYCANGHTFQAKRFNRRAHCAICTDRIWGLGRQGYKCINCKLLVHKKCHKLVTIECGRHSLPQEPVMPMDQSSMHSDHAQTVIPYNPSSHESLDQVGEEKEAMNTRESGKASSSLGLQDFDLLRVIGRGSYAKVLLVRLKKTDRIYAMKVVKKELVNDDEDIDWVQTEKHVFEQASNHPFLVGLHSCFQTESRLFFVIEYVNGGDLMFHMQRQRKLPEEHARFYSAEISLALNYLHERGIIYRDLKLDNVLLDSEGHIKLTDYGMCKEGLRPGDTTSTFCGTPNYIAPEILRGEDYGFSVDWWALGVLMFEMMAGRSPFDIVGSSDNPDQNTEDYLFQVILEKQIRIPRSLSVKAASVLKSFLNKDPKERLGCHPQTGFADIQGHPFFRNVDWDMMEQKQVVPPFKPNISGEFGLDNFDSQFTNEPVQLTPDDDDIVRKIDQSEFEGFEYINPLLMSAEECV
The conditions noted are these: read-out: %-inhibition at 1 µmol/L, PKCι.

For assay [10], the target named is panel of 255 wild-type kinases (Homo sapiens, UniProt P00519). The conditions noted are these: read-out: %-inhibition ABL.
For assay [11], the target named is panel of 255 wild-type kinases (Homo sapiens, UniProt P22694). Conditions: read-out: %-inhibition at 1 µmol/L, PKACβ.
Assay [12] deals with panel of 255 wild-type kinases (Homo sapiens, UniProt P19784). Conditions: read-out: %-inhibition at 1 µmol/L, CK2α2/β.
Assay [13] addresses panel of 255 wild-type kinases (Homo sapiens, UniProt P08631). Conditions: read-out: %-inhibition at 1 µmol/L, HCK.
The target in assay [14] is panel of 255 wild-type kinases (Homo sapiens, UniProt P10721). The conditions noted are these: read-out: %-inhibition at 1 µmol/L, KIT.
Assay [15] deals with panel of 255 wild-type kinases (Homo sapiens, UniProt P29597). Conditions: read-out: %-inhibition at 1 µmol/L, TYK2.
The mark [16] stands for this setting: kinase FAK, 1 µmol/L single concentration.
[17] abbreviates: kinase WNK1, 1 µmol/L single concentration.
Where [18] appears, read: kinase CK1γ2, 1 µmol/L single concentration.
Setting [19] is: CDK5/p25 kinase assay, 1 µmol/L single concentration.
Setting [20] is: kinase HGK, 1 µmol/L single concentration.
Where [21] appears, read: kinase PLK2, 1 µmol/L single concentration.
Where [22] appears, read: kinase SPHK1, 1 µmol/L single concentration.
[23] abbreviates: kinase GSK3α, 1 µmol/L single concentration.
Where [24] appears, read: kinase PKCι, 1 µmol/L single concentration.
The mark [25] stands for this setting: ABL kinase assay, 1 µmol/L single concentration.
[26] abbreviates: kinase PKACβ, 1 µmol/L single concentration.
Where [27] appears, read: kinase CK2α2/β, 1 µmol/L single concentration.
The mark [28] stands for this setting: kinase HCK, 1 µmol/L single concentration.
Setting [29] is: kinase KIT, 1 µmol/L single concentration.
Setting [30] is: kinase TYK2, 1 µmol/L single concentration.

Structures are written as SMILES. Read-outs that look alike come from different tables or passages of the source.

Take `CNC(=O)c1ccc(-c2cnc3ncc(Cc4ccc5ncccc5c4)n3n2)cc1F` [capmatinib]: the inhibition at 1 µM is -6% in [1]; -5% in [2]; -10% in assay [3]; -20% in assay [4]; 2.68% in assay [5]; 7% in [6]. In addition, the inhibition at 1 µM in assay [7] was -5.27%; in assay [8], -0.492%; in [9] it was -10%; in assay [10], -1.84%; in assay [11], -9%; in [12], -0.77%. Further, the inhibition at 1 µM in assay [13] is -1.63%; in assay [14], 4%; in assay [15], 0.148%.
On to `C[C@H](Nc1ncnc2nc[nH]c12)c1cc2cccc(Cl)c2c(=O)n1-c1ccccc1` [duvelisib], for which the inhibition at 1 µM is 4% in [1] (setting [16]); -3% in assay [2] (setting [17]); 2.74% in [3] (setting [18]); -11% in assay [4] (setting [19]); 2% in [5] (setting [20]); 13% in assay [6] (setting [21]). In addition, the inhibition at 1 µM was -3.25% in [7] (setting [22]); -1.9% in assay [8] (setting [23]); 18% in [9] (setting [24]); -2% in assay [10] (setting [25]); -16% in assay [11] (setting [26]); -1.47% in assay [12] (setting [27]). Also, the inhibition at 1 µM in assay [13] (setting [28]) is 6%; in assay [14] (setting [29]) it was -2.43%; in [15] (setting [30]) it was 2.8%.
As to `COC(=O)N[C@@H](C)CNc1nccc(-c2cn(C(C)C)nc2-c2cc(Cl)cc(NS(C)(=O)=O)c2F)n1` [encorafenib], the inhibition at 1 µM in assay [1] (setting [16]) was -3%; in assay [2] (setting [17]), 0.0799%; in [3] (setting [18]), 31%; in assay [4] (setting [19]), -17%; in assay [5] (setting [20]), 7.59%; in [6] (setting [21]), -2.68%. For the same compound, the inhibition at 1 µM in assay [7] (setting [22]) is -5.65%; in assay [8] (setting [23]) it was 55%; in assay [9] (setting [24]), -1.18%; in assay [10] (setting [25]) it was -5.41%; in assay [11] (setting [26]), 9.51%; in [12] (setting [27]), -3.75%. The inhibition at 1 µM in assay [13] (setting [28]) was -5.46%; in assay [14] (setting [29]) it was -1.43%; in assay [15] (setting [30]), -6%.
On to `CCc1nc(C(N)=O)c(Nc2ccc(N3CCC(N4CCN(C)CC4)CC3)c(OC)c2)nc1NC1CCOCC1` [gilteritinib], for which the inhibition at 1 µM in assay [1] is 81%; in [2] (setting [17]) it was -3%; in [3] (setting [18]), 6.55%; in [4] (setting [19]), 25%; in [5] (setting [20]), 96%; in [6] (setting [21]) it was 4.71%. The inhibition at 1 µM was -6% in [7] (setting [22]); 7.48% in assay [8] (setting [23]); 28% in assay [9] (setting [24]); 40% in assay [10] (setting [25]); 22% in [11] (setting [26]); 23% in [12] (setting [27]). Also, the figures for the inhibition at 1 µM in assay [13] (setting [28]), in assay [14] (setting [29]) and in assay [15] (setting [30]) were 87%, 71% and 70%, respectively.
In the case of `O=C(Nc1cnn2ccc(N3CCC[C@@H]3c3cc(F)ccc3F)nc12)N1CC[C@H](O)C1` [larotrectinib], the inhibition at 1 µM in assay [1] (setting [16]) is 4%; in assay [2] (setting [17]), -4.49%; in assay [3] (setting [18]) it was -7%; in assay [4] (setting [19]), -22%; in assay [5] (setting [20]) it was 2.53%; in assay [6] (setting [21]) it was 2.14%. Moreover, the inhibition at 1 µM in assay [7] (setting [22]) was -16%; in assay [8] (setting [23]) it was -6.65%; in assay [9] (setting [24]), -6%; in [10] (setting [25]), -7%; in [11] (setting [26]), -14%; in assay [12] (setting [27]), -3%. Further, the inhibition at 1 µM in assay [13] (setting [28]) is -3%; in assay [14] (setting [29]), -5%; in assay [15] (setting [30]), -0.368%.
Regarding `CCN1C(=O)N(c2c(F)c(OC)cc(OC)c2F)Cc2cnc3[nH]c(CN4CCOCC4)cc3c21` [pemigatinib], the inhibition at 1 µM in assay [1] (setting [16]) was 5.32%; in assay [2] (setting [17]) it was -3.59%; in assay [3] (setting [18]), -9%; in assay [4] (setting [19]) it was -12%; in [5] (setting [20]) it was 4.64%; in [6] (setting [21]), 0.757%. The inhibition at 1 µM is -13% in assay [7] (setting [22]); -5.3% in [8] (setting [23]); -4% in assay [9] (setting [24]); 10% in assay [10] (setting [25]); -7% in assay [11] (setting [26]); -5% in assay [12] (setting [27]). Besides, the inhibition at 1 µM was 31% in assay [13] (setting [28]), 23% in assay [14] and -6.39% in assay [15] (setting [30]).
Consider `FC(F)(F)c1ccc(CNc2ccc(Cc3c[nH]c4ncc(Cl)cc34)cn2)cn1` [pexidartinib], for which the inhibition at 1 µM in assay [1] (setting [16]) is 30%; in assay [2] (setting [17]), -1.24%; in [3] (setting [18]) it was -0.864%; in assay [4] (setting [19]) it was -21%; in assay [5] (setting [20]), 24%; in assay [6] (setting [21]), 7%. In addition, the inhibition at 1 µM in assay [7] (setting [22]) is -5%; in assay [8] (setting [23]), 3%; in assay [9] (setting [24]) it was 23%; in assay [10] (setting [25]), 0.064%; in [11] (setting [26]) it was 4%; in assay [12] (setting [27]), 0.601%. In addition, the inhibition at 1 µM in assay [13] (setting [28]) came to 3%; in assay [14] (setting [29]) it was 87%; in assay [15] (setting [30]), 19%.
In the case of `CO[C@]1(C(=O)N[C@@H](C)c2ccc(-n3cc(F)cn3)nc2)CC[C@H](c2nc(C)cc(Nc3cc(C)[nH]n3)n2)CC1` [pralsetinib], the inhibition at 1 µM is 14% in [1] (setting [16]); -2.67% in [2] (setting [17]); -13% in assay [3] (setting [18]); 43% in [4] (setting [19]); 3% in assay [5] (setting [20]); 6.54% in assay [6] (setting [21]). Besides, the inhibition at 1 µM in assay [7] (setting [22]) is 0.199%; in assay [8] (setting [23]), 62%; in assay [9] (setting [24]), -7.5%; in [10] (setting [25]) it was 37%; in assay [11] (setting [26]), 20%; in [12] (setting [27]), 4.29%. For the same compound, the inhibition at 1 µM in assay [13] (setting [28]) was determined as 82%; in assay [14] (setting [29]) it was 83%; in [15] (setting [30]), 91%.

The record behind these values is PMC9516332 (Frontiers in Oncology, 2022).
